# Results from the supplement of paper PMC10307832.
# Key:
# Assay in all cases: relative viability (nuclei count vs DMSO), 5 days (fraction); higher = more cells survive
# DM3189 = compound: C1CN(CCN1)C2=CC=C(C=C2)C3=CN4C(=C(C=N4)C5=CC=NC6=CC=CC=C56)N=C3 [DM3189]
# Summary of the method: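 Viability was defined as treated-well nuclei divided by vehicle-well nuclei, with the median taken over replicate plates. Cells from lung cancer lines sat overnight at 37 °C in 1536-well plates, received five √10-spaced library-drug doses by pinning on vehicle-anchored plates, and grew 5 days without medium change before one-step fixation, permeabilisation and Hoechst staining, 4× imaging and MetaXpress nuclear counts. Only plates with control CV under 25% and at least one doubling were kept.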
# DM3189 + Dasatinib = compound: C1CN(CCN1)C2=CC=C(C=C2)C3=CN4C(=C(C=N4)C5=CC=NC6=CC=CC=C56)N=C3 [DM3189] + Cc1nc(Nc2ncc(C(=O)Nc3c(C)cccc3Cl)s2)cc(N2CCN(CCO)CC2)n1 [Dasatinib] (partner 0.075 µM)
# Summary of the method: (§1)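 Relative viability is defined as nuclei in treated wells over nuclei in vehicle wells. Duplicate plates were run and medians reported. Lung cancer cell lines in 1536-well plates were dosed by pin tool one day after seeding, with one drug or with a fixed anchor-drug dose plus five library-drug doses (not always all listed) in √10 steps, and nuclei were counted after 5 days.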
# DM3189 + OSI-027 = compound: C1CN(CCN1)C2=CC=C(C=C2)C3=CN4C(=C(C=N4)C5=CC=NC6=CC=CC=C56)N=C3 [DM3189] + COc1cccc2cc(-c3nc([C@H]4CC[C@H](C(=O)O)CC4)n4ncnc(N)c34)[nH]c12 [OSI-027] (partner 0.5 µM)
# Summary of the method: as §1
# DM3189 + Phenformin = compound: C1CN(CCN1)C2=CC=C(C=C2)C3=CN4C(=C(C=N4)C5=CC=NC6=CC=CC=C56)N=C3 [DM3189] + N=C(N)NC(=N)NCCc1ccccc1 [Phenformin] (partner 250 µM)
# Summary of the method: as §1
# DM3189 + Foretinib = compound: C1CN(CCN1)C2=CC=C(C=C2)C3=CN4C(=C(C=N4)C5=CC=NC6=CC=CC=C56)N=C3 [DM3189] + COc1cc2c(Oc3ccc(NC(=O)C4(C(=O)Nc5ccc(F)cc5)CC4)cc3F)ccnc2cc1OCCCN1CCOCC1 [Foretinib] (partner 0.25 µM)
# Summary of the method: as §1
# DM3189 + Tozasertib = compound: C1CN(CCN1)C2=CC=C(C=C2)C3=CN4C(=C(C=N4)C5=CC=NC6=CC=CC=C56)N=C3 [DM3189] + Cc1cc(Nc2cc(N3CCN(C)CC3)nc(Sc3ccc(NC(=O)C4CC4)cc3)n2)n[nH]1 [Tozasertib] (partner 0.1 µM)
# Summary of the method: as §1
# DM3189 + Luminespib = compound: C1CN(CCN1)C2=CC=C(C=C2)C3=CN4C(=C(C=N4)C5=CC=NC6=CC=CC=C56)N=C3 [DM3189] + CCNC(=O)c1noc(-c2cc(C(C)C)c(O)cc2O)c1-c1ccc(CN2CCOCC2)cc1 [Luminespib] (partner 0.01 µM)
# Summary of the method: as §1
# DM3189 + Navitoclax = compound: C1CN(CCN1)C2=CC=C(C=C2)C3=CN4C(=C(C=N4)C5=CC=NC6=CC=CC=C56)N=C3 [DM3189] + CC1(C)CCC(c2ccc(Cl)cc2)=C(CN2CCN(c3ccc(C(=O)NS(=O)(=O)c4ccc(N[C@H](CCN5CCOCC5)CSc5ccccc5)c(S(=O)(=O)C(F)(F)F)c4)cc3)CC2)C1 [Navitoclax] (partner 0.5 µM)
# Summary of the method: as §1
# DM3189 + Linsitinib = compound: C1CN(CCN1)C2=CC=C(C=C2)C3=CN4C(=C(C=N4)C5=CC=NC6=CC=CC=C56)N=C3 [DM3189] + C[C@]1(O)C[C@@H](c2nc(-c3ccc4ccc(-c5ccccc5)nc4c3)c3c(N)nccn32)C1 [Linsitinib] (partner 1 µM)
# Summary of the method: as §1
# DM3189 + Bortezomib = compound: C1CN(CCN1)C2=CC=C(C=C2)C3=CN4C(=C(C=N4)C5=CC=NC6=CC=CC=C56)N=C3 [DM3189] + CC(C)C[C@H](NC(=O)[C@H](Cc1ccccc1)NC(=O)c1cnccn1)B(O)O [Bortezomib] (partner 0.002 µM)
# Summary of the method: as §1
# DM3189 + Crizotinib = compound: C1CN(CCN1)C2=CC=C(C=C2)C3=CN4C(=C(C=N4)C5=CC=NC6=CC=CC=C56)N=C3 [DM3189] + C[C@@H](Oc1cc(-c2cnn(C3CCNCC3)c2)cnc1N)c1c(Cl)ccc(F)c1Cl [Crizotinib] (partner 1 µM)
# Summary of the method: as §1
# DM3189 + Pictilisib = compound: C1CN(CCN1)C2=CC=C(C=C2)C3=CN4C(=C(C=N4)C5=CC=NC6=CC=CC=C56)N=C3 [DM3189] + CS(=O)(=O)N1CCN(Cc2cc3nc(-c4cccc5[nH]ncc45)nc(N4CCOCC4)c3s2)CC1 [Pictilisib] (partner 1 µM)
# Summary of the method: as §1
# DM3189 + Lapatinib = compound: C1CN(CCN1)C2=CC=C(C=C2)C3=CN4C(=C(C=N4)C5=CC=NC6=CC=CC=C56)N=C3 [DM3189] + CS(=O)(=O)CCNCc1ccc(-c2ccc3ncnc(Nc4ccc(OCc5cccc(F)c5)c(Cl)c4)c3c2)o1 [Lapatinib] (partner 2 µM)
# Summary of the method: as §1
# DM3189 + Olaparib = compound: C1CN(CCN1)C2=CC=C(C=C2)C3=CN4C(=C(C=N4)C5=CC=NC6=CC=CC=C56)N=C3 [DM3189] + O=C(c1cc(Cc2n[nH]c(=O)c3ccccc23)ccc1F)N1CCN(C(=O)C2CC2)CC1 [Olaparib] (partner 8 µM)
# Summary of the method: as §1
# DM3189 + Alpelisib = compound: C1CN(CCN1)C2=CC=C(C=C2)C3=CN4C(=C(C=N4)C5=CC=NC6=CC=CC=C56)N=C3 [DM3189] + Cc1nc(NC(=O)N2CCC[C@H]2C(N)=O)sc1-c1ccnc(C(C)(C)C(F)(F)F)c1 [Alpelisib] (partner 2 µM)
# Summary of the method: as §1
cell line,measurement,setting,value
NCI-H1623,relative viability,DM3189; 0.08 µM,1.05
same,relative viability,DM3189; 0.253 µM,0.874
same,relative viability,DM3189; 0.8 µM,0.92
same,relative viability,DM3189; 2.53 µM,0.979
same,relative viability,DM3189 + Dasatinib; first compound 0.08 µM,0.588
same,relative viability,DM3189 + Dasatinib; first compound 0.253 µM,0.611
same,relative viability,DM3189 + Dasatinib; first compound 0.8 µM,0.456
same,relative viability,DM3189 + Dasatinib; first compound 2.53 µM,0.527
same,relative viability,DM3189 + OSI-027; first compound 0.08 µM,0.517
same,relative viability,DM3189 + OSI-027; first compound 0.253 µM,0.43
same,relative viability,DM3189 + OSI-027; first compound 0.8 µM,0.34
same,relative viability,DM3189 + OSI-027; first compound 2.53 µM,0.369
same,relative viability,DM3189 + Phenformin; first compound 0.08 µM,0.61
same,relative viability,DM3189 + Phenformin; first compound 0.253 µM,0.528
same,relative viability,DM3189 + Phenformin; first compound 0.8 µM,0.46
same,relative viability,DM3189 + Phenformin; first compound 2.53 µM,0.545
same,relative viability,DM3189 + Foretinib; first compound 0.08 µM,0.939
same,relative viability,DM3189 + Foretinib; first compound 0.253 µM,0.901
same,relative viability,DM3189 + Foretinib; first compound 0.8 µM,0.83
same,relative viability,DM3189 + Foretinib; first compound 2.53 µM,0.818
same,relative viability,DM3189 + Tozasertib; first compound 0.08 µM,0.406
same,relative viability,DM3189 + Tozasertib; first compound 0.253 µM,0.426
same,relative viability,DM3189 + Tozasertib; first compound 0.8 µM,0.408
same,relative viability,DM3189 + Tozasertib; first compound 2.53 µM,0.377
same,relative viability,DM3189 + Luminespib; first compound 0.08 µM,0.482
same,relative viability,DM3189 + Luminespib; first compound 0.253 µM,0.494
same,relative viability,DM3189 + Luminespib; first compound 0.8 µM,0.313
same,relative viability,DM3189 + Luminespib; first compound 2.53 µM,0.537
Calu-6,relative viability,DM3189; 0.08 µM,1.03
same,relative viability,DM3189; 0.253 µM,0.966
same,relative viability,DM3189; 0.8 µM,0.812
same,relative viability,DM3189; 2.53 µM,1.03
same,relative viability,DM3189 + Navitoclax; first compound 0.08 µM,0.819
same,relative viability,DM3189 + Navitoclax; first compound 0.253 µM,0.678
same,relative viability,DM3189 + Navitoclax; first compound 0.8 µM,0.705
same,relative viability,DM3189 + Navitoclax; first compound 2.53 µM,0.486
same,relative viability,DM3189 + Linsitinib; first compound 0.08 µM,0.975
same,relative viability,DM3189 + Linsitinib; first compound 0.253 µM,0.958
same,relative viability,DM3189 + Linsitinib; first compound 0.8 µM,0.703
same,relative viability,DM3189 + Linsitinib; first compound 2.53 µM,0.763
same,relative viability,DM3189 + Bortezomib; first compound 0.08 µM,0.997
same,relative viability,DM3189 + Bortezomib; first compound 0.253 µM,0.941
same,relative viability,DM3189 + Bortezomib; first compound 0.8 µM,0.816
same,relative viability,DM3189 + Bortezomib; first compound 2.53 µM,0.784
same,relative viability,DM3189 + Crizotinib; first compound 0.08 µM,0.895
same,relative viability,DM3189 + Crizotinib; first compound 0.253 µM,0.788
same,relative viability,DM3189 + Crizotinib; first compound 0.8 µM,0.732
same,relative viability,DM3189 + Crizotinib; first compound 2.53 µM,0.544
same,relative viability,DM3189 + Pictilisib; first compound 0.08 µM,0.876
same,relative viability,DM3189 + Pictilisib; first compound 0.253 µM,0.658
same,relative viability,DM3189 + Pictilisib; first compound 0.8 µM,0.657
same,relative viability,DM3189 + Pictilisib; first compound 2.53 µM,0.692
same,relative viability,DM3189 + Lapatinib; first compound 0.08 µM,0.998
same,relative viability,DM3189 + Lapatinib; first compound 0.253 µM,0.905
same,relative viability,DM3189 + Lapatinib; first compound 0.8 µM,0.822
same,relative viability,DM3189 + Lapatinib; first compound 2.53 µM,0.885
same,relative viability,DM3189 + Foretinib; first compound 0.08 µM,0.901
same,relative viability,DM3189 + Foretinib; first compound 0.253 µM,0.768
same,relative viability,DM3189 + Foretinib; first compound 0.8 µM,0.715
same,relative viability,DM3189 + Foretinib; first compound 2.53 µM,0.765
same,relative viability,DM3189 + Olaparib; first compound 0.08 µM,0.625
same,relative viability,DM3189 + Olaparib; first compound 0.253 µM,0.529
same,relative viability,DM3189 + Olaparib; first compound 0.8 µM,0.45
same,relative viability,DM3189 + Olaparib; first compound 2.53 µM,0.608
same,relative viability,DM3189 + Alpelisib; first compound 0.08 µM,1.06
same,relative viability,DM3189 + Alpelisib; first compound 0.253 µM,0.855
same,relative viability,DM3189 + Alpelisib; first compound 0.8 µM,0.702
same,relative viability,DM3189 + Alpelisib; first compound 2.53 µM,0.77
